In ChEMBL document CHEMBL1909046, “DrugMatrix in vitro pharmacology data”:

How the values were obtained:
[1] = biological target: T1, Alpha-1A adrenergic receptor (Rattus norvegicus, UniProt P43140); assay: DRUGMATRIX: Alpha-1A adrenergic receptor radioligand binding (ligand: prazosin); type: cell membranes, Wistar, Submaxillary gland, Membrane; details: Not Active = under 50% inhibition at 10 µM
T1 sequence (P43140 whole entry): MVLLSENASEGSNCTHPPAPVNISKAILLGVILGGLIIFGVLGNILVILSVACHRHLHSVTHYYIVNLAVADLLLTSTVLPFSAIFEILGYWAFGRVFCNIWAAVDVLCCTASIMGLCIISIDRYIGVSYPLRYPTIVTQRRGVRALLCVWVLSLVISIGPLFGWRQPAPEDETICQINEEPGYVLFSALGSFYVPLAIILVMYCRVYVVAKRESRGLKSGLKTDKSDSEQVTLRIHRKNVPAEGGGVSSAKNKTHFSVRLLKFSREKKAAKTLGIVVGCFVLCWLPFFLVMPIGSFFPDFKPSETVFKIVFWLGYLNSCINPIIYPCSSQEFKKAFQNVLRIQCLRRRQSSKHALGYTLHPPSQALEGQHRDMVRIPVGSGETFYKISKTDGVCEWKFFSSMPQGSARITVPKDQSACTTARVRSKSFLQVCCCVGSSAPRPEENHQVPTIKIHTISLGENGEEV

[2] = biological target: Aldo-keto reductase family 1 member B1 (Rattus norvegicus, UniProt P07943); assay: biochemical; type: tissue-based, Lens of camera-type eye;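 further: inhibition of aldose reductase enzyme activity, measured with DL-glyceraldehyde as the substrate; in other assays of this panel Not Active means under 50% inhibition at 10 µM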
[3] = biological target: T2, Substance-K receptor (Homo sapiens, UniProt P21452); type: cell membranes, CHO, Membrane; details: for Ki: read-out: Ki; on all read-outs here: in other assays of this panel Not Active means under 50% inhibition at 10 µM
T2 sequence (P21452 whole entry): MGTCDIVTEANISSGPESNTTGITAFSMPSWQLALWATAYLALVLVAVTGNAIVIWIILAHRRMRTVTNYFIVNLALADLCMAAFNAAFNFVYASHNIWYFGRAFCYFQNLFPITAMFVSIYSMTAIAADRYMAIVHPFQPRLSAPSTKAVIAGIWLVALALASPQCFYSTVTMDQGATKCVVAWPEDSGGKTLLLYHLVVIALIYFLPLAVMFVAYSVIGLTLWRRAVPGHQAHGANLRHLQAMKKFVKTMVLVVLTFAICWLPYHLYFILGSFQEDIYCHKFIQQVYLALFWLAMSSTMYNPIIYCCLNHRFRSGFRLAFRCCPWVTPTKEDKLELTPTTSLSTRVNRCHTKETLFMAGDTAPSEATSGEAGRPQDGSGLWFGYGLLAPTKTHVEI

[4] = DRUGMATRIX: Phosphodiesterase PDE3 enzyme inhibition (substrate: [3H]cAMP + cAMP); type: tissue-based, Homo sapiens; details: platelet; Not Active = under 50% inhibition at 10 µM
[5] = biological target: 5-hydroxytryptamine receptor 1B (Rattus norvegicus, UniProt P28564); type: cell membranes, Wistar, Cerebral cortex, Membrane; further: in other assays of this panel Not Active means under 50% inhibition at 10 µM
[6] = biological target: T3, Adenosine receptor A3 (Homo sapiens, UniProt P0DMS8); type: cell membranes, CHO-K1, Membrane;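 further: radioligand binding assay with AB-MECA serving as the labeled ligand; in other assays of this panel Not Active means under 50% inhibition at 10 µM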
T3 sequence (P0DMS8 whole entry): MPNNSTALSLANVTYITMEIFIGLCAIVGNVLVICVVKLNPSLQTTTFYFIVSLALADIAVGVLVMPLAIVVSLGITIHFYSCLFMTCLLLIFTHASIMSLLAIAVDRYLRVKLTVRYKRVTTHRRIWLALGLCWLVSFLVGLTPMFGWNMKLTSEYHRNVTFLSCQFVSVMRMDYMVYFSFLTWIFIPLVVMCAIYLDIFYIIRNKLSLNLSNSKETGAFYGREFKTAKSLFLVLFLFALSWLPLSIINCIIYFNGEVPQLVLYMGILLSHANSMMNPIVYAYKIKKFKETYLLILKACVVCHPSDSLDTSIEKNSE

5-hydroxytryptamine receptor 1B, sequence (P28564 whole entry): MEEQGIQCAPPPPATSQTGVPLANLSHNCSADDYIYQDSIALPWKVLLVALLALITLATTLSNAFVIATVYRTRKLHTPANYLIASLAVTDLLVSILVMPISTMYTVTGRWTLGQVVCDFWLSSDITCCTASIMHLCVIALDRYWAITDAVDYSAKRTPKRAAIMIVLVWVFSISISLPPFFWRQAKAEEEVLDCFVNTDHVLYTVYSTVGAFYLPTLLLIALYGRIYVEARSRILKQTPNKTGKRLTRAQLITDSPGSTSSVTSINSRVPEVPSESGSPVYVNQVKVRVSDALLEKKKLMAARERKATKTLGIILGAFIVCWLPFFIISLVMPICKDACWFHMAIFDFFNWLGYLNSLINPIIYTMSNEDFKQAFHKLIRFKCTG

## Cc1cc2cc3c(C)cc(=O)oc3c(C)c2o1 [TRIOXSALEN]
[1]
  IC50: Not Active
[2]
  IC50: Not Active
[3]; cho
  IC50: Not Active
[4]
  IC50: Not Active
  Ki: Not Active
[5]
  IC50: Not Active
[6]; cho-k1
  IC50: Not Active

## Cc1ncc([N+](=O)[O-])n1CCO [METRONIDAZOLE]
[1]
  IC50: Not Active
[2]
  IC50: Not Active
[3]; cho
  IC50: Not Active
[4]
  IC50: Not Active
  Ki: Not Active
[5]
  IC50: Not Active
[6]; cho-k1
  IC50: Not Active

## OC(CCN1CCCCC1)(c1ccccc1)C1CCCCC1 (centres undefined) [TRIHEXYPHENIDYL]
[1]
  IC50: Not Active
[2]
  IC50: Not Active
[3]; cho
  IC50: Not Active
[4]
  IC50: Not Active
  Ki: Not Active
[5]
  IC50: Not Active
[6]; cho-k1
  IC50: Not Active

## O=C(C1CCCCC1)N1CC(=O)N2CCc3ccccc3C2C1 (centres undefined) [PRAZIQUANTEL]
[1]
  IC50: Not Active
[2]
  IC50: Not Active
[3]; cho
  IC50: Not Active
[4]
  IC50: Not Active
  Ki: Not Active
[5]
  IC50: Not Active
[6]; cho-k1
  IC50: Not Active

## C=C1CC[C@H](O)C/C1=C/C=C1\CCC[C@]2(C)[C@@H]([C@H](C)CCCC(C)C)CC[C@@H]12 [CHOLECALCIFEROL]
[1]
  IC50: Not Active
[2]
  IC50: Not Active
[3]; cho
  IC50: Not Active
[4]
  IC50: Not Active
  Ki: Not Active
[5]
  IC50: Not Active
[6]; cho-k1
  IC50: Not Active

## CC(=O)OCC(=O)[C@@]1(O)CC[C@H]2[C@@H]3CCC4=CC(=O)CC[C@]4(C)[C@H]3C(=O)C[C@@]21C [CORTISONE ACETATE]
[1]
  IC50: Not Active
[2]
  IC50: Not Active
[3]; cho
  IC50: Not Active
[4]
  IC50: Not Active
  Ki: Not Active
[5]
  IC50: Not Active
[6]; cho-k1
  IC50: Not Active

## COc1ccc2[nH]c([S+]([O-])Cc3ncc(C)c(OC)c3C)nc2c1 (centres undefined) [OMEPRAZOLE]
[1]
  IC50: Not Active
[2]
  IC50: Not Active
[3]; cho
  IC50: Not Active
[4]
  IC50: Not Active
  Ki: Not Active
[5]
  IC50: Not Active
[6]; cho-k1
  IC50: Not Active

## C[C@@]12C(=O)OC(=O)[C@]1(C)[C@H]1CC[C@@H]2O1 [CANTHARIDIN]
[1]
  IC50: Not Active
[2]
  IC50: Not Active
[3]; cho
  IC50: Not Active
[4]
  IC50: Not Active
  Ki: Not Active
[5]
  IC50: Not Active
[6]; cho-k1
  IC50: Not Active

## Nc1c(CC(=O)O)cccc1C(=O)c1ccc(Br)cc1 [BROMFENAC]
[1]
  IC50: Not Active
[2]
  IC50: Not Active
[3]; cho
  IC50: Not Active
[4]
  IC50: Not Active
  Ki: Not Active
[5]
  IC50: Not Active
[6]; cho-k1
  IC50: Not Active

## C[C@H]1O[C@@H](O[C@H]2[C@@H](O)C[C@H](O[C@H]3[C@@H](O)C[C@H](O[C@H]4CC[C@@]5(C)[C@H](CC[C@@H]6[C@@H]5CC[C@]5(C)[C@@H](C7=CC(=O)OC7)CC[C@]65O)C4)O[C@@H]3C)O[C@@H]2C)C[C@H](O)[C@@H]1O [DIGITOXIN]
[1]
  IC50: Not Active
[2]
  IC50: Not Active
[3]; cho
  IC50: Not Active
[4]
  IC50: Not Active
  Ki: Not Active
[5]
  IC50: Not Active
[6]; cho-k1
  IC50: Not Active

## C[N+](C)(C)CCO.[Cl-] [CHOLINE CHLORIDE]
[1]
  IC50: Not Active
[2]
  IC50: Not Active
[3]; cho
  IC50: Not Active
[4]
  IC50: Not Active
  Ki: Not Active
[5]
  IC50: Not Active
[6]; cho-k1
  IC50: Not Active

## CN(C)c1ccc(C(=C2C=CC(=[N+](C)C)C=C2)c2ccc(N(C)C)cc2)cc1.[Cl-] [GENTIAN VIOLET]
[1]
  IC50: Not Active
[2]
  IC50: Not Active
[3]; read-out: IC50
  IC50: 1680 nM
[3]
  Ki: 560 nM
[4]
  IC50: Not Active
  Ki: Not Active
[5]
  IC50: Not Active
[6]; read-out: IC50
  IC50: 4170 nM
[6]; read-out: Ki
  Ki: 2350 nM

## O=S(=O)([O-])CCS.[Na+] [MESNA]
[1]
  IC50: Not Active
[2]
  IC50: Not Active
[3]; cho
  IC50: Not Active
[4]
  IC50: Not Active
  Ki: Not Active
[5]
  IC50: Not Active
[6]; cho-k1
  IC50: Not Active

## O=C(O)Cc1ccccc1Nc1c(Cl)cccc1Cl [DICLOFENAC]
[1]
  IC50: Not Active
[2]
  IC50: Not Active
[3]; cho
  IC50: Not Active
[4]
  IC50: Not Active
  Ki: Not Active
[5]
  IC50: Not Active
[6]; cho-k1
  IC50: Not Active

## COc1ccccc1C(=O)N1CCC(Cc2ccccc2)CC1
[1]
  IC50: Not Active
[2]
  IC50: Not Active
[3]; cho
  IC50: Not Active
[4]
  IC50: Not Active
  Ki: Not Active
[5]
  IC50: Not Active
[6]; cho-k1
  IC50: Not Active

## CCC1=C[C@@H]2CN(C1)Cc1c([nH]c3ccccc13)[C@@](C(=O)OC)(c1cc3c(cc1OC)N(C)[C@H]1[C@@](O)(C(=O)OC)[C@H](OC(C)=O)[C@]4(CC)C=CCN5CC[C@]31[C@@H]54)C2 [VINORELBINE]
[1]
  IC50: Not Active
[2]
  IC50: Not Active
[3]; read-out: IC50
  IC50: 1610 nM
[3]
  Ki: 536 nM
[4]
  IC50: Not Active
  Ki: Not Active
[5]
  IC50: Not Active
[6]; cho-k1
  IC50: Not Active

## CCOC(=O)[C@H](CCc1ccccc1)N[C@H]1CCc2ccccc2N(CC(=O)O)C1=O [BENAZEPRIL]
[1]
  IC50: Not Active
[2]
  IC50: Not Active
[3]; cho
  IC50: Not Active
[4]
  IC50: Not Active
  Ki: Not Active
[5]
  IC50: Not Active
[6]; cho-k1
  IC50: Not Active

## CCOC(=O)C(C)(C)Oc1ccc(Cl)cc1 [CLOFIBRATE]
[1]
  IC50: Not Active
[2]
  IC50: Not Active
[3]; cho
  IC50: Not Active
[4]
  IC50: Not Active
  Ki: Not Active
[5]
  IC50: Not Active
[6]; cho-k1
  IC50: Not Active

## CC(=O)Nc1c(I)c(NC(C)=O)c(I)c(C(=O)O)c1I [DIATRIZOIC ACID]
[1]
  IC50: Not Active
[2]
  IC50: Not Active
[3]; cho
  IC50: Not Active
[4]
  IC50: Not Active
  Ki: Not Active
[5]
  IC50: Not Active
[6]; cho-k1
  IC50: Not Active

## CCOC(=O)C1=C(C)NC(C)=C(C(=O)OC)C1c1cccc([N+](=O)[O-])c1 (centres undefined) [NITRENDIPINE]
[1]
  IC50: Not Active
[2]
  IC50: Not Active
[3]; cho
  IC50: Not Active
[4]
  IC50: Not Active
  Ki: Not Active
[5]
  IC50: Not Active
[6]; cho-k1
  IC50: Not Active

## O=C1CC[C@H](N2C(=O)c3ccccc3C2=O)C(=O)N1
[1]
  IC50: Not Active
[2]
  IC50: Not Active
[3]; cho
  IC50: Not Active
[4]
  IC50: Not Active
  Ki: Not Active
[5]
  IC50: Not Active
[6]; cho-k1
  IC50: Not Active

## CC(C)Cc1ccc(C(C)C(=O)O)cc1 (centres undefined) [IBUPROFEN]
[1]
  IC50: Not Active
[2]
  IC50: Not Active
[3]; cho
  IC50: Not Active
[4]
  IC50: Not Active
  Ki: Not Active
[5]
  IC50: Not Active
[6]; cho-k1
  IC50: Not Active

## CCCCN1CCCCC1C(=O)Nc1c(C)cccc1C.Cl (centres undefined) [BUPIVACAINE HYDROCHLORIDE]
[1]
  IC50: Not Active
[2]
  IC50: Not Active
[3]; cho
  IC50: Not Active
[4]
  IC50: Not Active
  Ki: Not Active
[5]
  IC50: Not Active
[6]; cho-k1
  IC50: Not Active
